# Data published in ChEMBL document CHEMBL1201862, “PubChem BioAssay data set” (2004).
#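 How tested: cells in 96-well plates exposed to compound for 48 hours at five concentrations. GI50: concentration for 50% inhibition of growth.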 Activity calls are given as the source filed them. No stated cut-off is given here; in the data, active = GI50 up to about 1.1 µM and inactive = higher.
# How the values were obtained:
# Experiment in all cases: NCI anticancer screen, dose series, 48 h
# 786-0 = tested on: 786-0
# A498 = tested on: A498
# A549 = tested on: A549
# ACHN = tested on: ACHN
# BT-549 = tested on: BT-549
# CAKI-1 = tested on: CAKI-1
# CCRF-CEM = tested on: CCRF-CEM
# COLO 205 = tested on: COLO 205
# DU-145 = tested on: DU-145
# EKVX = tested on: EKVX
# HCT-116 = tested on: HCT-116
# HCT-15 = tested on: HCT-15
# HL-60 = tested on: HL-60
# HOP-62 = tested on: HOP-62
# HOP-92 = tested on: HOP-92
# HT-29 = tested on: HT-29
# Hs-578T = tested on: Hs-578T
# IGROV-1 = tested on: IGROV-1
# KM12 = tested on: KM12
# LOX IMVI = tested on: LOX IMVI
# M14 = tested on: M14
# MCF7 = tested on: MCF7
# MDA-MB-231 = tested on: MDA-MB-231
# MDA-MB-435 = tested on: MDA-MB-435
# MDA-N = tested on: MDA-N
# MOLT-4 = tested on: MOLT-4
# Malme-3M = tested on: Malme-3M
# NCI-H226 = tested on: NCI-H226
# NCI-H23 = tested on: NCI-H23
# NCI-H522 = tested on: NCI-H522
# NCI/ADR-RES = tested on: NCI/ADR-RES
# OVCAR-3 = tested on: OVCAR-3
# OVCAR-4 = tested on: OVCAR-4
# OVCAR-5 = tested on: OVCAR-5
# OVCAR-8 = tested on: OVCAR-8
# PC-3 = tested on: PC-3
# RPMI-8226 = tested on: RPMI-8226
# SF-268 = tested on: SF-268
# SF-295 = tested on: SF-295
# SF-539 = tested on: SF-539
# SK-MEL-28 = tested on: SK-MEL-28
# SK-MEL-2 = tested on: SK-MEL-2
# SK-MEL-5 = tested on: SK-MEL-5
# SK-OV-3 = tested on: SK-OV-3
# SN12C = tested on: SN12C
# SNB-19 = tested on: SNB-19
# SR = tested on: SR
# SW-620 = tested on: SW-620
# T47D = tested on: T47D
# TK-10 = tested on: TK-10
# U-251 = tested on: U-251
# UACC-257 = tested on: UACC-257
# UACC-62 = tested on: UACC-62
# UO-31 = tested on: UO-31
# K562 = tested on: K562
# NCI-H460 = tested on: NCI-H460
# RXF 393 = tested on: RXF 393
# SNB-75 = tested on: SNB-75
structure (smiles),measurement,setting,value
CCCCC(=O)/C=c1/cc(C)[nH]c2cccc3cnn1c32,GI50,786-0,> 100 µM (inactive)
same,GI50,A498,> 100 µM (inactive)
same,GI50,A549,> 100 µM (inactive)
same,GI50,ACHN,> 100 µM (inactive)
same,GI50,BT-549,> 100 µM (inactive)
same,GI50,CAKI-1,> 100 µM (inactive)
same,GI50,CCRF-CEM,> 100 µM (inactive)
same,GI50,COLO 205,> 100 µM (inactive)
same,GI50,DU-145,> 100 µM (inactive)
same,GI50,EKVX,> 100 µM (inactive)
same,GI50,HCT-116,> 100 µM (inactive)
same,GI50,HCT-15,> 100 µM
same,GI50,HL-60,> 100 µM (inactive)
same,GI50,HOP-62,> 100 µM (inactive)
same,GI50,HOP-92,68.9 µM (inactive)
same,GI50,HT-29,60.1 µM (inactive)
same,GI50,Hs-578T,> 100 µM (inactive)
same,GI50,IGROV-1,> 100 µM (inactive)
same,GI50,KM12,> 100 µM (inactive)
same,GI50,LOX IMVI,> 100 µM (inactive)
same,GI50,M14,> 100 µM (inactive)
same,GI50,MCF7,> 100 µM (inactive)
same,GI50,MDA-MB-231,> 100 µM (inactive)
same,GI50,MDA-MB-435,64 µM (inactive)
same,GI50,MDA-N,> 100 µM (inactive)
same,GI50,MOLT-4,> 100 µM (inactive)
same,GI50,Malme-3M,> 100 µM (inactive)
same,GI50,NCI-H226,> 100 µM (inactive)
same,GI50,NCI-H23,> 100 µM (inactive)
same,GI50,NCI-H522,> 100 µM (inactive)
same,GI50,NCI/ADR-RES,> 100 µM (inactive)
same,GI50,OVCAR-3,> 100 µM (inactive)
same,GI50,OVCAR-4,> 100 µM (inactive)
same,GI50,OVCAR-5,> 100 µM (inactive)
same,GI50,OVCAR-8,> 100 µM (inactive)
same,GI50,PC-3,49.1 µM (inactive)
same,GI50,RPMI-8226,61.9 µM (inactive)
same,GI50,SF-268,> 100 µM (inactive)
same,GI50,SF-295,> 100 µM (inactive)
same,GI50,SF-539,> 100 µM (inactive)
same,GI50,SK-MEL-28,> 100 µM (inactive)
same,GI50,SK-MEL-2,> 100 µM (inactive)
same,GI50,SK-MEL-5,> 100 µM (inactive)
same,GI50,SK-OV-3,> 100 µM (inactive)
same,GI50,SN12C,> 100 µM (inactive)
same,GI50,SNB-19,> 100 µM (inactive)
same,GI50,SR,48 µM (inactive)
same,GI50,SW-620,> 100 µM (inactive)
same,GI50,T47D,16 µM (inactive)
same,GI50,TK-10,> 100 µM (inactive)
same,GI50,U-251,> 100 µM (inactive)
same,GI50,UACC-257,> 100 µM (inactive)
same,GI50,UACC-62,> 100 µM (inactive)
same,GI50,UO-31,> 100 µM (inactive)
Nc1nc(N)nc(CC(=O)O)n1,GI50,786-0,> 100 µM (inactive)
same,GI50,A498,> 100 µM (inactive)
same,GI50,A549,> 100 µM (inactive)
same,GI50,ACHN,> 100 µM (inactive)
same,GI50,BT-549,> 100 µM (inactive)
same,GI50,CAKI-1,> 100 µM (inactive)
same,GI50,CCRF-CEM,> 100 µM (inactive)
same,GI50,COLO 205,> 100 µM (inactive)
same,GI50,DU-145,> 100 µM (inactive)
same,GI50,EKVX,> 100 µM (inactive)
same,GI50,HCT-116,> 100 µM (inactive)
same,GI50,HCT-15,> 100 µM
same,GI50,HL-60,> 100 µM (inactive)
same,GI50,HOP-62,> 100 µM (inactive)
same,GI50,HOP-92,> 100 µM (inactive)
same,GI50,HT-29,> 100 µM (inactive)
same,GI50,Hs-578T,> 100 µM (inactive)
same,GI50,IGROV-1,> 100 µM (inactive)
same,GI50,K562,> 100 µM (inactive)
same,GI50,KM12,> 100 µM (inactive)
same,GI50,LOX IMVI,> 100 µM (inactive)
same,GI50,M14,> 100 µM (inactive)
same,GI50,MCF7,> 100 µM (inactive)
same,GI50,MDA-MB-231,> 100 µM (inactive)
same,GI50,MDA-MB-435,> 100 µM (inactive)
same,GI50,MDA-N,> 100 µM (inactive)
same,GI50,MOLT-4,> 100 µM (inactive)
same,GI50,Malme-3M,> 100 µM (inactive)
same,GI50,NCI-H226,> 100 µM (inactive)
same,GI50,NCI-H23,> 100 µM (inactive)
same,GI50,NCI-H460,> 100 µM (inactive)
same,GI50,NCI-H522,> 100 µM (inactive)
same,GI50,NCI/ADR-RES,> 100 µM (inactive)
same,GI50,OVCAR-3,> 100 µM (inactive)
same,GI50,OVCAR-4,> 100 µM (inactive)
same,GI50,OVCAR-5,> 100 µM (inactive)
same,GI50,OVCAR-8,> 100 µM (inactive)
same,GI50,PC-3,> 100 µM (inactive)
same,GI50,RPMI-8226,> 100 µM (inactive)
same,GI50,RXF 393,> 100 µM (inactive)
same,GI50,SF-268,> 100 µM (inactive)
same,GI50,SF-295,> 100 µM (inactive)
same,GI50,SF-539,> 100 µM (inactive)
same,GI50,SK-MEL-28,> 100 µM (inactive)
same,GI50,SK-MEL-2,> 100 µM (inactive)
same,GI50,SK-MEL-5,> 100 µM (inactive)
same,GI50,SK-OV-3,> 100 µM (inactive)
same,GI50,SN12C,> 100 µM (inactive)
same,GI50,SNB-19,> 100 µM (inactive)
same,GI50,SNB-75,> 100 µM (inactive)
same,GI50,SR,> 100 µM (inactive)
same,GI50,SW-620,> 100 µM (inactive)
same,GI50,T47D,> 100 µM (inactive)
same,GI50,TK-10,> 100 µM (inactive)
same,GI50,U-251,> 100 µM (inactive)
same,GI50,UACC-257,> 100 µM (inactive)
same,GI50,UACC-62,> 100 µM (inactive)
same,GI50,UO-31,> 100 µM (inactive)
